Patent publication US20210322404A1, “FGFR REGULATION FOR THE TREATMENT OF VIRAL INFECTIONS” (ETH ZURICH, priority 2016, published 2021)
Entries after “also recorded” stand apart in the source; their conditions may differ.

What was measured:
[1] = tested on: interferon-stimulated genes (ISGs); test: ISG expression in primary mouse keratinocytes pre-incubated with inhibitors, then treated with FGF7 (qRT-PCR); assay type: cell-based; conditions: primary keratinocytes from wild-type mice; inhibitor 3 h (SB203580 5 μM, NSC23766 50 μM, AZD4547 1 μM), then FGF7 10 ng/ml 6 h
HSV-1 = HSV-1 infection of HaCaT cells, virus load; assay type: cell-based, Herpes Simplex Virus type 1; conditions: HaCaT; for amount and size of Glyc-D-positive fused cells (immunofluorescence): HSV-1; for amount and size of Glyc-D-positive fused cells (immunofluorescence) / Glyc-B DNA levels (viral load, qPCR relative to human β-actin gene): NSC23766 20 μM, AZD4547 1 μM; for Glyc-B DNA levels (viral load, qPCR relative to human β-actin gene): HSV-1 MOI=0.5, +/- FGF7 10 ng/ml, BGJ398 3.5 μM
Experimental: FIGS. 5A-C relate to HaCaT cells infected with HSV-1 (MOI=0.5) after overnight serum starvation, either alone or in combination with FGF7 (10 ng/ml) or IFNα (1000U/ml). 24 h after infection, virus load was determined by qPCR for the HSV-1 Glycoprotein B (Glyc-B) gene relative to the human β-actin gene (A) or visualized by immunofluorescence staining for HSV-1 Glycoprotein D (Glyc-D) (red) (B). The Glyc-B/β-actin gene ratio in HSV-1 infected cells was set to 1. Cell nuclei were stained with DAPI (blue). Magnification bar: 200 μm. (C) Transmission microscopy images of HaCaT cells taken 48 h after HSV-1 infection. […] Magnification bar: 80 μm. Representative data out of four experiments are shown.
FIGS. 5 D & E relate to overnight-starved HaCaT cells infected with HSV-1 (MOI=0.5) alone or in combination with IFNα (1000 U/ml), IFNα and FGF7 (10 ng/ml) (D); or FGF7 at different concentrations (E).
FIG. 5F pertains to serum-starved HaCaT cells that were infected with HSV-1 (MOI 0.5-1). After 4 h, infected cells were washed with PBS, followed by addition of fresh serum-free culture medium containing FGF7 (10 ng/ml).
FIGS. 5G-K pertains to overnight-starved HaCaT cells infected with HSV-1 (MOI=0.5) alone or in combination with FGF7, which was added at the indicated time points. 12 h after infection, cells were analyzed for Glyc-B DNA (H) and, RSAD2 and IRF7 mRNA levels by qPCR/qRT-PCR (I) or for ISG protein levels by western blotting (K). Vinculin was used as loading control.
FIGS. 7A-C relate to serum-starved HaCaT cells that were infected with HSV-1 in the presence or absence of FGF7 (10 ng/ml), NSC23766 (20 μM), the FGFR kinase inhibitors AZD4547 (1 μM) and BGJ398 (3.5 μM) (A) or IFNα (1000 U/ml) (B). […] Magnification bar: 500 μm. The Glyc-D positive area was quantified using digital pixel measurements (C, right). A representative out of two experiments is shown.
Frozen sections from mouse back skin were fixed with cold methanol, and unspecific binding sites were blocked with PBS/2% bovine serum albumin (BSA) (Sigma)/1% fish skin gelatin (Sigma)/0.05% Triton X-100 (Carl Roth GmbH, Karlsruhe, Germany) for 2 h at room temperature. Samples were then incubated overnight at 4° C. with anti-IRF7 or anti-K14 antibodies diluted in the same buffer. After three washes with 1×PBS/0.1% Tween 20 (Carl Roth GmbH), slides were incubated at room temperature (RT) for 4 h with secondary antibodies (AF555-conjugated anti-rabbit IgG and AF488-conjugated anti-mouse IgG) and DAPI (4′,6-diamidino-2-phenylindole dihydrochloride) (Sigma) as counter-stain, washed again and mounted with Mowiol (Hoechst, Frankfurt, Germany). Stained sections were photographed with a Leica SP1-2 confocal microscope equipped with a 63×0.6-1.32 NA (Iris) PL Apo Oil objective. For data acquisition the Leica Confocal Software (Leica, Wetzlar, Germany) was used. For immunofluorescence staining of cultured cells, they were washed with PBS and either fixed for 5 min with cold methanol for staining with antibodies against ZO-1 and IRF7, or with 4% paraformaldehyde (PFA) (Sigma) for 20 min at RT for Glyc-D staining. PFA-fixed cells were then incubated for 10 min with 0.5% Triton X-100 in PBS. After 1 h blocking in PBS containing 2% BSA, cells were stained with the primary antibodies for 1 h in the same blocking buffer. After three washes with PBS, cells were incubated with the secondary antibodies (AF555-conjugated anti-mouse IgG, AF488-conjugated anti-mouse IgG and AF555-conjugated anti-rabbit IgG) and DAPI.

HCV = conditions: hepatic / hepatoma cells, Van et al.; cited from earlier work
[2] = tested on: interferon-stimulated response element (ISRE); test: ISRE luciferase reporter assay in immortalized mouse keratinocytes; assay type: cell-based; conditions: FGF7 10 ng/ml and/or IFNα 1000 U/ml, 12 h
Experimental: FIG. 3C pertains to immortalized mouse keratinocytes that were co-transfected with TK-Renilla and pGL4.45[luc2P/ISRE/Hygro] plasmids, starved in serum-free medium and then treated with FGF7 (10 ng/ml) and/or IFNα (1000 U/ml) for 12 h. Firefly luciferase activity was determined in cell lysates and normalized to Renilla luciferase activity (transfection control). The mean value in vehicle-treated cells (CTRL) was set to 1.
Mouse keratinocytes and HEK 293 cells were transfected with the expression vector for TK-Renilla and the expression vector pGL4.45[luc2P/ISRE/Hygro] (Promega). The latter contains five copies of an ISRE that drives expression of the luciferase reporter gene. Cells were seeded into 12-well plates, cultured for 24 h, and transfected using Lipofectamine 2000 […]. They were then starved in serum-free medium, treated with FGF7 (10 ng/ml) and/or IFNα (1000 U/ml) for 12 h, lysed and analyzed using a dual-luciferase assay system (Promega) as described by the manufacturer. Relative light units were measured in a GloMax 96 microplate luminometer with dual injectors (Promega).

LCMV = assay type: cell-based, Lymphocytic Choriomeningitis Virus; conditions: HaCaT, LCMV MOI 0.05 or 0.2
[3] = tested on: interferon-stimulated genes (ISGs); test: ISG expression in human keratinocytes (HaCaT, primary foreskin) treated with FGF7, FGF10 and/or IFNα (qRT-PCR); assay type: cell-based; conditions: HaCaT, 10 ng/ml, 6 h
Experimental: FIG. 2F relates to serum-starved immortalized human keratinocytes (HaCaT cell line) that were treated for 6 h with FGF7, FGF10 (both 10 ng/ml) or vehicle (CTRL). RNA was analyzed by qRT-PCR for the expression of the indicated ISGs relative to RPLP0. Mean expression levels in CTRL cells were set to 1. Representative data from three experiments are shown. Scatter plot and mean values are shown in (A-D). Each dot represents a biological replicate.
FIGS. 3E and F pertain to confluent human primary foreskin keratinocytes and (E) or HaCaT cells (F) that were serum-starved for 24 h and treated with FGF7 (10 ng/ml) and/or IFNα (500 U/ml) for 16 h. Cells were analyzed for ISG mRNA levels by qRT-PCR relative to RPLP0. Mean expression levels in vehicle-treated (CTRL) cells were set to 1.
The human HaCaT keratinocyte cell line was cultured in DMEM (Sigma) supplemented with 10% FCS (Thermo Fisher). […]
Total RNA from isolated epidermis of mice or from total skin was purified with Trizol, followed by additional purification with the RNeasy Mini Kit, including on-column DNase treatment (Qiagen, Hilden, Germany). […] Relative gene expression was determined using the Roche LightCycler 480 SYBR Green system (Roche, Rotkreuz, Switzerland).

## CCN(CC)CCCC(C)Nc1nc(C)cc(Nc2ccc3nc(C)cc(N)c3c2)n1 (racemic) [NSC23766, 6-N-[2-[5-(diethylamino)pentan-2-ylamino]-6-methylpyrimidin-4-yl]-2-methylquinoline-4,6-diamine, reference compound]
[1]
  FGF7-mediated ISG downregulation (ISG mRNA relative to Rps29): partially or even completely rescued the FGF7-mediated ISG downregulation
HSV-1
  amount and size of Glyc-D-positive fused cells (immunofluorescence): strongly reduced the amount of Glyc-D-positive fused cells
  Glyc-B DNA levels (viral load, qPCR relative to human β-actin gene): strongly reduced

## COc1cc(CCc2cc(NC(=O)c3ccc(N4C[C@@H](C)N[C@@H](C)C4)cc3)n[nH]2)cc(OC)c1 [AZD4547, N-[5-[2-(3,5-dimethoxyphenyl)ethyl]-1H-pyrazol-3-yl]-4-[(3R,5S)-3,5-dimethylpiperazin-1-yl]benzamide, reference compound]
[1]
  FGF7-mediated ISG downregulation (ISG mRNA relative to Rps29): The same effect was observed
HSV-1
  amount and size of Glyc-D-positive fused cells (immunofluorescence): strongly reduced the amount of Glyc-D-positive fused cells
  Glyc-B DNA levels (viral load, qPCR relative to human β-actin gene): inhibited the positive effect of FGF7 on viral replication

## CCN1CCN(c2ccc(Nc3cc(N(C)C(=O)Nc4c(Cl)c(OC)cc(OC)c4Cl)ncn3)cc2)CC1 [BGJ398, 3-(2,6-dichloro-3,5-dimethoxyphenyl)-1-[6-[4-(4-ethylpiperazin-1-yl)anilino]pyrimidin-4-yl]-1-methylurea, reference compound]
HSV-1
  Glyc-B DNA levels (viral load, qPCR relative to human β-actin gene): inhibited the positive effect of FGF7 on viral replication

## FGF1: member of the FGF family that binds to all FGFRs
HCV
  HCV replication: does not enhance HCV replication

## FGF2: fibroblast growth factor-2
HCV
  HCV replication: promoted hepatitis C RNA replication and production of novel particles; also recorded: enhanced viral replication and new particle production, but not infection with the virus

## IFNα
[2]
  ISRE-driven luciferase activity: significant increase in luciferase activity
LCMV
  expression levels of LCMV nucleoprotein (NP) / viral replication: blocked the viral replication
HSV-1; 48 h after infection
  appearance of HSV-1 infected cells (transmission microscopy): almost indistinguishable from non-infected cells
HSV-1; HSV-1 MOI=0.5, FGF7 10 ng/ml or IFNα 1000 U/ml
  viral glycoprotein B (Glyc-B) DNA: had the opposite effect

B1: FGF10: recombinant human FGF10, activates FGFR2b and FGFR1b (protein, UniProt O15520 38-208, looked up)
Fibroblast growth factor 10: QALGQDMVSPEATNSSSSSFSSPSSAGRHVRSYNHLQGDVRWRKLFSFTKYFLKIEKNGKVSGTKKENCPYSILEITSVEIGVVAVKAINSNYYLAMNKKGKLYGSKEFNNDCKLKERIEENGYNTYASFNWQHNGRQMYVALNGKGAPRRGQKTRRKNTSAHFLPMVVHS
[3]
  ISG expression (qRT-PCR relative to RPLP0): suppressed ISG expression to a similar extent as FGF7
